The test system of data set [1] is phosphorylation of ERK, KRAS G12D in AGS cells. The data set can be described thus: pERK inhibition assay, G12D. The format is cell-based, human. The settings on record: Homo sapiens, 4 hours of incubation. The essentials: (§1)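 NCI-H358 (G12C), AGS (G12D) and SW620 (G12V) cells were seeded overnight at 30,000, 20,000 and 30,000 cells/well, respectively. They were then treated 4 h with compound (0.5% DMSO final), fixed, and methanol-permeabilized. pERK was detected by in-cell ELISA (anti-pERK/HRP, TMB, OD450); IC50 from a 4-parameter sigmoidal fit.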

Data set [2] concerns the target KRAS G12D binding to BRAF (Homo sapiens, UniProt P01116+P62937, G12D). The data set can be described thus: KRAS-BRAF with CYPA (500 nM) interaction assay (TR-FRET), G12D. The format is biochemical. The settings on record: 3 hours. Put shortly:
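TR-FRET (Ex320 nm, Em 665/615 nm) measured compound- or compound-CYPA-dependent disruption of KRAS-BRAF complex, with CYPA at 500 nM. Disruption scored as decrease in TR-FRET ratio versus DMSO control wells.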
(TR-FRET usually uses a lanthanide donor and a delayed reading to cut background.)

In data set [3] the test system is phosphorylation of ERK, KRAS G12V in SW620. The experiment in a line: pERK inhibition assay, G12V. Type of data set: cell-based, human. Particulars: Homo sapiens, SW-620; SW620, 4 hours of incubation. The essentials: as §1
Data set [4] has as its system SW620 cells (KRAS G12V). The data set can be described thus: Cell viability assay, G12V. The format is cell-based, human. The settings on record: Homo sapiens, SW-620; SW620, 72 hrs, Cell Counting Kit-8. Put shortly: (§2)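 After overnight attachment, cells received compounds (0.5% DMSO) for 72 hrs; viability was then quantified with CCK-8, reading OD450 minus OD650, and IC50 values were obtained from a 4-parameter concentration-response fit.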
In general terms: Tetrazolium dyes change colour on reduction, which living cells bring about.

Data set [5] concerns phosphorylation of ERK, KRAS G12C in NCI-H358 cells. The data set can be described thus: pERK inhibition assay, G12C. The format is cell-based, human. Particulars: Homo sapiens; NCI-H358, 4 hours of incubation. The essentials:
as §1

Data set [6] relates to human hepatocytes. The experiment in a line: Human hepatocyte stability assay. Type of data set: in vitro ADME. Particulars: for Clearance Category: human hepatocytes. On the procedure: The hepatocyte stability assay measures the rate of disappearance of a compound from incubations with cryopreserved suspension hepatocytes from human. Positive controls, including Midazolam, Raloxifene and Dextromethorphan, are included in every experiment. Incubations consist of 1 μM tested compound and suspension of human hepatocytes (1×10^6 cells/mL) in supplemented Williams' E Medium with 10% FBS and 0.5% Penicillin-streptomycin. The hepatocyte suspension was incubated with intermittent shaking 900 rpm at 37° C., in a 5% CO2 incubator. The reaction was stopped by adding methanol containing internal standard (2 μM Tolbutamide) at 2, 10, 20, 40, 60 and 120 minutes after compound addition, depletion of the parent compound was monitored by LC-MS/MS analysis.

The test system of data set [7] is NCI-H358 cells (KRAS G12C). The data set can be described thus: Cell viability assay, G12C. Type of data set: cell-based, human. The settings on record: Homo sapiens; NCI-H358, 72 hrs, Cell Counting Kit-8. The essentials: as §2
Data set [8] can be described thus: Single Dose Pharmacokinetics (SDPK) study in female BALB/c mice. The format is in vivo. Particulars: mouse; for clearance: 3 mg/kg, iv; for clearance / AUC(0-t) / Cmax: female BALB/c mice, plasma. Here is the method:
The purpose of this study was to determine the pharmacokinetics of selected compounds following single intravenous bolus or oral gavage administration in female BALB/c mice. Briefly, two groups of female BALB/c mice (available from Zhejiang Vital River Laboratory Animal Technology Co., Ltd. or Shanghai Lingchang Biotechnology Co., Ltd) (N=3/group) were treated with a single dose of compound intravenously at 3 mg/kg (IV) or orally at 30 mg/kg (PO). Blood samples were collected at 5 min (only for IV), 15 min, 30 min, 1 h, 2 h, 4 h, 7 h and 24 h post-dose. Blood samples were placed on ice until centrifugation to obtain plasma samples. The concentration of compound in plasma samples was determined using LC-MS/MS method. The pharmacokinetic parameters were calculated by non-compartmental analysis.

Setting [9] is: 1 μM compound, human hepatocytes 1×10^6 cells/mL.

Results on four molecules are retold here after US20250257075A1, “MACROCYCLIC INHIBITORS OF KRAS FOR THE TREATMENT OF CANCER” (Hoffmann-La Roche Inc., priority 2022, published 2025).

Chain of KRAS G12D binding to BRAF (P01116 1-188 isoform P01116-2 G12D): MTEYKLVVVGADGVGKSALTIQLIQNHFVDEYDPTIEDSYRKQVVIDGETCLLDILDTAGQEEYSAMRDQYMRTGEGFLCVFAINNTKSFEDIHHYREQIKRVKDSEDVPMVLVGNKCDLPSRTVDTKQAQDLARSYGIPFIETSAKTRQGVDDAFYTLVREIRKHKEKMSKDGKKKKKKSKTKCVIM
Chain of KRAS G12D binding to BRAF (P62937 whole entry): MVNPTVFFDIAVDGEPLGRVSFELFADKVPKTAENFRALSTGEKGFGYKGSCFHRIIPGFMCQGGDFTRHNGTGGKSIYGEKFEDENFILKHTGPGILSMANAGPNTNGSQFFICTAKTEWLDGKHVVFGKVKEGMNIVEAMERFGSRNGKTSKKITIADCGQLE

Turning to `CO[C@@H](C)c1ncc(N2CCN(C)CC2)cc1-c1c2c3cc(c(F)cc3n1CC(F)(F)F)-c1csc(n1)C[C@H](NC(=O)[C@H](C(C)C)N(C)C(=O)[C@H]1C[C@@H](C#CC(F)(F)F)C1)C(=O)N1CCC[C@H](N1)C(=O)OCC(C)(C)C2` (atropisomer, axis not shown; (M)) [Example 3, cis-N-[(1S)-1-[[(7S,13S)-24-fluoro-(20M)-20-[2-[(1S)-1-methoxyethyl]-5-(4-methylpiperazin-1-yl)-3-pyridyl]-17,17-dimethyl-8,14-dioxo-21-(2,2,2-trifluoroethyl)-15-oxa-4-thia-9,21,27,28-tetrazapentacyclo[17.5.2.1^2,5.1^9,13.0^22,26]octacosa-1(25),2,5(28),19,22(26),23-hexaen-7-yl]carbamoyl]-2-methyl-propyl]-N-methyl-3-(3,3,3-trifluoroprop-1-ynyl)cyclobutanecarboxamide], the IC50 (usually the concentration at which inhibition is half-maximal) in data set [1] is 0.378 µM; in data set [2], over 10 µM; in data set [3], 0.009 µM; in data set [4], 2.18 µM; in data set [5], 0.007 µM; in data set [7], 0.003 µM. Also, in data set [6] (human, 1 μM), the “CL_hep (Human)” value turned out to be 3.6 mL/min/kg.

`CCn1c(-c2cc(N3CCN(CC(F)(F)F)CC3)cnc2[C@H](C)OC)c2c3cc(c(F)cc31)-c1csc(n1)C[C@H](NC(=O)[C@H](C(C)C)N(C)C(=O)[C@H]1C[C@@H](C#CC(F)(F)F)C1)C(=O)N1CCC[C@H](N1)C(=O)OCC(C)(C)C2` (atropisomer, axis not shown; (M)) [Example 8, cis-N-[(1S)-1-[[(7S,13S)-21-ethyl-24-fluoro-(20M)-20-[2-[(1S)-1-methoxyethyl]-5-[4-(2,2,2-trifluoroethyl)piperazin-1-yl]-3-pyridyl]-17,17-dimethyl-8,14-dioxo-15-oxa-4-thia-9,21,27,28-tetrazapentacyclo[17.5.2.1^2,5.1^9,13.0^22,26]octacosa-1(25),2,5(28),19,22(26),23-hexaen-7-yl]carbamoyl]-2-methyl-propyl]-N-methyl-3-(3,3,3-trifluoroprop-1-ynyl)cyclobutanecarboxamide]: the half-maximal inhibitory concentration (IC50) in data set [1] is over 10 µM; in data set [2] it was over 10 µM; in data set [3], 0.125 µM; in data set [4] it was over 5 µM; in data set [5] it was 0.005 µM; in data set [7], 0.019 µM. Moreover, the “CL_hep (Human)” value in data set [6] (setting [9]) was 2.9 mL/min/kg. For the same molecule, the “Clearance Category” value in data set [6] is reported as “low (CL_hep (mL/min/kg)<6.96 is low clearance)”.

Turning to `CCn1c(-c2cc(N3CCOCC3)cnc2[C@H](C)OC)c2c3cc(c(F)cc31)-c1csc(n1)C[C@H](NC(=O)[C@H](C(C)C)N(C)C(=O)[C@H]1C[C@@H](C#CC(F)(F)F)C1)C(=O)N1CCC[C@H](N1)C(=O)OCC(C)(C)C2` (atropisomer, axis not shown; (M)) [Example 11, cis-N-[(1S)-1-[[(7S,13S)-21-ethyl-24-fluoro-(20M)-20-[2-[(1S)-1-methoxyethyl]-5-morpholino-3-pyridyl]-17,17-dimethyl-8,14-dioxo-15-oxa-4-thia-9,21,27,28-tetrazapentacyclo[17.5.2.1^2,5.1^9,13.0^22,26]octacosa-1(25),2,5(28),19,22(26),23-hexaen-7-yl]carbamoyl]-2-methyl-propyl]-N-methyl-3-(3,3,3-trifluoroprop-1-ynyl)cyclobutanecarboxamide], the IC50 was 3.77 µM in data set [1]; over 10 µM in data set [2]; 0.187 µM in data set [3]; 1.37 µM in data set [4]; 0.011 µM in data set [5]; 0.002 µM in data set [7]. In addition, the “AUC0-last relative to A168” value in data set [8] (30 mg/kg, po, versus A168) worked out at 1.5 folds. The “Cmax relative to A168” value in data set [8] (30 mg/kg, po, versus A168) is on record as about 2 folds. Also, the clearance (usually a measure of how efficiently the substance is removed, as volume per time) in data set [8] came to 14.2 mL/min/kg. Besides, the AUC(0-t) (in general, the area under the concentration-time curve up to a stated or last time point) in data set [8] (30 mg/kg, po) came to 2180 ng·h/mL. The peak level in data set [8] (30 mg/kg, po) (Cmax) was 1510 ng/mL. The “CL_hep (Human)” value in data set [6] (setting [9]) worked out at 3.3 mL/min/kg. Further, the “Clearance Category” value in data set [6] is listed as “low (CL_hep (mL/min/kg)<6.96 is low clearance)”.

Take `CC#CC(=O)N1CC[C@H](C(=O)N(C)[C@H](C(=O)N[C@H]2Cc3nc(cs3)-c3ccc4c(c3)c(c(-c3cccnc3[C@H](C)OC)n4CC)CC(C)(C)COC(=O)[C@@H]3CCCN(N3)C2=O)C(C)C)C1` [Example A168, reference compound]: the clearance in data set [8] came out at 77 mL/min/kg. This molecule also displayed an AUC(0-t) in data set [8] (30 mg/kg, po) of 1580 ng·h/mL. Moreover, the Cmax (usually the highest concentration seen after dosing) in data set [8] (30 mg/kg, po) was found to be 794 ng/mL. Moreover, the IC50 in data set [2] was over 10 µM; in data set [3], 0.176 µM; in data set [4], 0.121 µM; in data set [5], 0.053 µM; in data set [7], 0.011 µM. Also, the “CL_hep (Human)” value in data set [6] (setting [9]) turned out to be 8.8 mL/min/kg. Moreover, the “Clearance Category” value in data set [6] is reported as “medium (16.24<CL_hep (mL/min/kg) >6.96 is medium clearance)”.
